Results on 14 compounds are retold here after PubChem BioAssay (NCI).

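Step 1: Grow cells in 96-well plates. Step 2: Expose to compound for 48 hours at 5 concentrations. Step 3: Interpolate endpoints linearly; if unreached, use highest concentration. Here, GI50 denotes the concentration required for 50% inhibition of growth. The concentration for full growth arrest is given as TGI.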 Some results are limits rather than exact numbers.

Test systems include HOP-62 NSCLC; ACHN renal; NCI-H226 lung; M14 melanoma; NCI-H460 lung; UACC-62 melanoma; UACC-257 melanoma; OVCAR-8 ovarian.
What all share (assay): NCI tumour cell line growth inhibition, 48 h

For the compound `COc1ccc(Nc2nc3cc(N)cc(N)c3nc2-c2ccccc2)cc1OC`, the GI50 with HOP-62 NSCLC was 34.8 µM; in the assay with ACHN renal it was 27.4 µM; in the assay with NCI-H226 lung, 18.7 µM; in the assay on M14 melanoma, 21 µM; in the assay on NCI-H460 lung it was 20.5 µM; with UACC-62 melanoma it was 13.4 µM. Besides, the GI50 is 35.6 µM with UACC-257 melanoma and 33.6 µM with OVCAR-8 ovarian. Further, the TGI was above 100 µM in the assay with HOP-62 NSCLC; above 100 µM with ACHN renal; 57.1 µM in the assay on NCI-H226 lung; 69.8 µM in the assay with M14 melanoma; above 100 µM with NCI-H460 lung; 27.4 µM in the assay with UACC-62 melanoma. Besides, the TGI in the assay on UACC-257 melanoma and in the assay on OVCAR-8 ovarian was above 100 µM in each case.

For the compound `Cc1cc(Cl)ccc1Nc1nc(C(F)(F)F)ccc1C(=O)N/N=C/c1ccccc1Cl`, the GI50 was 0.836 µM with HOP-62 NSCLC; 1.53 µM with ACHN renal; 1.3 µM with NCI-H226 lung; 0.874 µM in the assay with M14 melanoma; 0.85 µM in the assay on NCI-H460 lung; 1.43 µM in the assay with UACC-62 melanoma. Moreover, the results for the GI50 in the assay with UACC-257 melanoma and with OVCAR-8 ovarian were 2.24 µM and 2.16 µM, respectively. The TGI turned out to be 2.72 µM in the assay with HOP-62 NSCLC; 6.86 µM with ACHN renal; 5.07 µM with NCI-H226 lung; 7.83 µM with M14 melanoma; 4.84 µM in the assay with NCI-H460 lung; 5.36 µM with UACC-62 melanoma. In addition, the TGI in the assay with UACC-257 melanoma was 10.2 µM; with OVCAR-8 ovarian, above 92.7 µM.

Take `COc1cc2c(=O)n(CCN(C)C)c3c4cc5c(cc4ccc3c2cc1OC)OCO5`: the GI50 was 0.193 µM with HOP-62 NSCLC; 0.128 µM with ACHN renal; 0.512 µM in the assay on NCI-H226 lung; 0.166 µM in the assay with M14 melanoma; 0.123 µM in the assay with NCI-H460 lung; 0.115 µM in the assay with UACC-62 melanoma. The GI50 with UACC-257 melanoma is 0.413 µM; with OVCAR-8 ovarian, 0.478 µM. Besides, the TGI is 1.88 µM in the assay on HOP-62 NSCLC; 0.363 µM in the assay with ACHN renal; 1.27 µM with NCI-H226 lung; 0.723 µM with M14 melanoma; 0.592 µM in the assay on NCI-H460 lung; 0.435 µM in the assay on UACC-62 melanoma. Besides, the TGI with UACC-257 melanoma was 1.52 µM; with OVCAR-8 ovarian, above 50 µM.

Take `Cc1cccc(NC(=O)/C=C/c2ccc([N+](=O)[O-])cc2)c1`: the TGI in the assay on HOP-62 NSCLC is 33.4 µM; with ACHN renal, 28.8 µM; in the assay on NCI-H226 lung, above 72 µM; in the assay on M14 melanoma, above 59.4 µM; with NCI-H460 lung, above 64.5 µM; in the assay on UACC-62 melanoma, above 58.5 µM. For the same compound, the results for the TGI with UACC-257 melanoma and in the assay on OVCAR-8 ovarian were above 55.1 µM and above 53.7 µM, respectively.

As for `COc1ccccc1NS(=O)(=O)c1ccc2oc(SC(C)C)nc2c1`, the GI50 in the assay with HOP-62 NSCLC was 31.2 µM; with ACHN renal it was 21 µM; in the assay with NCI-H226 lung it was 10.3 µM; in the assay on M14 melanoma, 36.1 µM; in the assay with NCI-H460 lung, 15.7 µM; with UACC-62 melanoma it was 18.5 µM. For the same compound, the GI50 is 1.76 µM in the assay on UACC-257 melanoma and 25.6 µM in the assay with OVCAR-8 ovarian. The TGI in the assay with HOP-62 NSCLC was above 100 µM; in the assay with ACHN renal, above 100 µM; in the assay with NCI-H226 lung, 43.9 µM; in the assay with M14 melanoma, above 100 µM; with NCI-H460 lung it was above 100 µM; with UACC-62 melanoma it was above 100 µM. Also, the TGI in the assay with UACC-257 melanoma is 19.1 µM; in the assay with OVCAR-8 ovarian, above 100 µM.

For the compound `C=C1C(=O)O[C@H]2[C@H]1CC/C(COC(=O)NCCc1c[nH]c3ccc(Cl)cc13)=C\CC[C@@]1(C)O[C@@H]21`, the GI50 in the assay with HOP-62 NSCLC is 2.18 µM; in the assay with ACHN renal it was 1.54 µM; in the assay with NCI-H226 lung, 1.92 µM; in the assay with M14 melanoma, 1.61 µM; in the assay with NCI-H460 lung, 2.2 µM; with UACC-62 melanoma it was 1.61 µM. For the same compound, the GI50 in the assay with UACC-257 melanoma was 1.72 µM; in the assay on OVCAR-8 ovarian, 1.6 µM. Further, the TGI came to 5.48 µM with HOP-62 NSCLC; 2.88 µM in the assay with ACHN renal; 3.64 µM in the assay on NCI-H226 lung; 3.13 µM in the assay with M14 melanoma; 4.64 µM with NCI-H460 lung; 3.07 µM in the assay on UACC-62 melanoma. For the same compound, the TGI in the assay on UACC-257 melanoma worked out at 3.19 µM; with OVCAR-8 ovarian it was 3.26 µM.

As to `NC(=Nc1ccc(N)cc1)C(N)=Nc1ccc(N)cc1`, the GI50 was above 100 µM in the assay with HOP-62 NSCLC; 37.5 µM with ACHN renal; above 100 µM in the assay on NCI-H226 lung; above 100 µM with M14 melanoma; above 100 µM with NCI-H460 lung; above 100 µM in the assay on UACC-62 melanoma. The figures for the GI50 in the assay with UACC-257 melanoma and in the assay with OVCAR-8 ovarian were above 100 µM and 69.1 µM, respectively. The TGI in the assay with HOP-62 NSCLC, with ACHN renal, in the assay on NCI-H226 lung, with M14 melanoma, with NCI-H460 lung and in the assay on UACC-62 melanoma was above 100 µM in each case. For the same compound, the TGI with UACC-257 melanoma and in the assay on OVCAR-8 ovarian was above 100 µM each time.

Regarding `N#Cc1c(N)nc(NCc2ccccc2)c(C#N)c1-c1ccc(Cl)cc1Cl`, the GI50 was above 51.9 µM in the assay with HOP-62 NSCLC; above 100 µM in the assay on ACHN renal; above 100 µM in the assay with NCI-H226 lung; above 53.4 µM in the assay with M14 melanoma; above 69.4 µM in the assay on NCI-H460 lung; above 100 µM with UACC-62 melanoma. The GI50 with UACC-257 melanoma was above 100 µM; in the assay with OVCAR-8 ovarian, above 67 µM. Further, the TGI with HOP-62 NSCLC is above 85.9 µM; in the assay with ACHN renal, above 100 µM; with NCI-H226 lung, above 100 µM; with M14 melanoma, above 100 µM; with NCI-H460 lung it was above 100 µM; in the assay with UACC-62 melanoma, above 100 µM. Moreover, the TGI in the assay on UACC-257 melanoma and in the assay on OVCAR-8 ovarian was above 100 µM throughout.

As to `N#CN1CC[C@H](C(=O)Nc2cc3cc(C(N)=O)ccc3cn2)C1`, the GI50 in the assay with HOP-62 NSCLC was 0.172 µM; with ACHN renal, 0.333 µM; in the assay on NCI-H226 lung, 0.238 µM; with M14 melanoma, 0.0694 µM; in the assay on NCI-H460 lung it was 0.188 µM; in the assay with UACC-62 melanoma, 0.0587 µM. The GI50 in the assay with UACC-257 melanoma was 0.22 µM; in the assay with OVCAR-8 ovarian, 0.0993 µM. Further, the TGI in the assay with HOP-62 NSCLC is 3.5 µM; in the assay on NCI-H226 lung, 5.08 µM; in the assay on M14 melanoma it was 1.13 µM; in the assay on NCI-H460 lung, above 44 µM; in the assay on UACC-62 melanoma it was 0.399 µM; in the assay with UACC-257 melanoma it was 0.904 µM. In the assay on OVCAR-8 ovarian, this compound showed a TGI above 46.3 µM.

As to `C[C@@H]1COCCN1c1cc(C2([S@@](C)(=N)=O)CC2)nc(-c2ccnc3[nH]ccc23)n1`, the GI50 in the assay on HOP-62 NSCLC was 3.74 µM; with ACHN renal it was 2.17 µM; with NCI-H226 lung it was 4.26 µM; with M14 melanoma, 3.52 µM; in the assay with NCI-H460 lung it was 3.09 µM; with UACC-62 melanoma, 4.29 µM. For the same compound, the GI50 with UACC-257 melanoma was 14.6 µM; in the assay on OVCAR-8 ovarian it was 10.9 µM. The TGI was 63.6 µM with HOP-62 NSCLC; above 51.3 µM in the assay with ACHN renal; 98.7 µM in the assay on NCI-H226 lung; 26.4 µM in the assay on M14 melanoma; above 69.8 µM in the assay on NCI-H460 lung; 36.6 µM with UACC-62 melanoma. The TGI with UACC-257 melanoma and with OVCAR-8 ovarian was above 100 µM each time.

Turning to `COc1cc(NCCN=C(N)NC(N)=NC(C)C)c2ncccc2c1`, the GI50 with HOP-62 NSCLC was 28.5 µM; with ACHN renal, above 100 µM; in the assay with NCI-H226 lung, 39.7 µM; in the assay on M14 melanoma, 22.6 µM; in the assay with NCI-H460 lung it was 5.67 µM; with UACC-62 melanoma, 18.9 µM. Further, the GI50 with UACC-257 melanoma is 11 µM; in the assay on OVCAR-8 ovarian it was 22.6 µM. Further, the TGI in the assay on HOP-62 NSCLC is above 100 µM; in the assay on ACHN renal, above 100 µM; in the assay on NCI-H226 lung, above 100 µM; with M14 melanoma, above 100 µM; with NCI-H460 lung, above 57.6 µM; in the assay on UACC-62 melanoma, 94.6 µM. Moreover, the TGI is 32.5 µM in the assay on UACC-257 melanoma and above 100 µM with OVCAR-8 ovarian.

Take `O=C(Nc1cc(Oc2cc(F)c(NC(=O)C3(C(=O)Nc4ccc(F)cc4)CC3)cc2F)ccn1)C1CC1`: the GI50 in the assay on HOP-62 NSCLC is 2.76 µM; in the assay on ACHN renal, 2.87 µM; in the assay on NCI-H226 lung, 2.53 µM; with M14 melanoma, 1.53 µM; in the assay on NCI-H460 lung, 3.27 µM; in the assay on UACC-62 melanoma, 1.19 µM. The figures for the GI50 with UACC-257 melanoma and in the assay with OVCAR-8 ovarian were 2.08 µM and 3.25 µM, respectively. Besides, the TGI is 8.71 µM in the assay on HOP-62 NSCLC; above 100 µM in the assay with ACHN renal; 7.98 µM with NCI-H226 lung; 5.23 µM in the assay with M14 melanoma; above 34.7 µM with NCI-H460 lung; 5.6 µM in the assay on UACC-62 melanoma. In addition, the values for the TGI in the assay on UACC-257 melanoma and in the assay with OVCAR-8 ovarian were 6.32 µM and above 31.6 µM, respectively.

On to `CC1=C[C@H]2C[C@H](C)[C@H]3CC[C@H](C)[C@]4(C1)C(=O)C(O)=C(C)C(=O)[C@@]324`, for which the GI50 was 28.7 µM in the assay with HOP-62 NSCLC; 34.2 µM in the assay on ACHN renal; 33 µM with NCI-H226 lung; 29.7 µM with M14 melanoma; 42.9 µM in the assay on NCI-H460 lung; 22 µM in the assay with UACC-62 melanoma. The GI50 was 59.2 µM with UACC-257 melanoma and 40.4 µM in the assay with OVCAR-8 ovarian. Further, the TGI was 83.6 µM in the assay on HOP-62 NSCLC; above 100 µM with ACHN renal; above 100 µM with NCI-H226 lung; above 100 µM in the assay with M14 melanoma; above 100 µM in the assay with NCI-H460 lung; 80.2 µM in the assay on UACC-62 melanoma. The TGI in the assay on UACC-257 melanoma and with OVCAR-8 ovarian was above 100 µM in each case.

As for `COc1cccc(C2C3=C(COC3=O)N(CCO)c3cc4c(cc32)OCO4)c1` (stereo not drawn), the GI50 with HOP-62 NSCLC was 0.598 µM; with ACHN renal, 3.92 µM; in the assay on NCI-H226 lung, 23.2 µM; in the assay with M14 melanoma, 0.25 µM; in the assay with NCI-H460 lung, 0.189 µM; in the assay on UACC-257 melanoma, 0.124 µM. Further, the GI50 in the assay on OVCAR-8 ovarian is 1.19 µM. The TGI with HOP-62 NSCLC is above 50 µM; in the assay with ACHN renal it was above 50 µM; in the assay on NCI-H226 lung it was above 50 µM; in the assay with M14 melanoma, above 11 µM; with UACC-62 melanoma, above 50 µM; in the assay on UACC-257 melanoma, above 50 µM. This compound also yielded a TGI in the assay on OVCAR-8 ovarian above 50 µM.
